Results as given in patent US7053052B2, “Therapies involving mutated heat shock transcription factor” (priority 1997, dated 2006).
“Also recorded” adds a separate entry of the source.

Columns and labels:
HeLa-CAT cells [1] = assay: Rates of protein and DNA synthesis in HSF1(+)-expressing cells (3H-leucine, 3H-thymidine incorporation); type: cell-based, human; conditions: day 2
Procedure: CAT assays were performed using the chromatographic assay of Gorman, C. M. et al., Mol. Cell. Biol., 2:1044–1051 (1982)). DNA replication was assessed by a standard ^3H-thymidine incorporation assay. In most experiments, including all western blot assays, standardization was based on protein content. All protein determinations were made using the Bradford method. In a few experiments involving sorted cells, standardization was based on cell numbers. All experiments were repeated at least twice, and, in most cases, each data point was derived from assays of 3–5 parallel samples.
Protein synthesis dropped to about 10% of the normal rate during heat shock but, after a 1 hour recovery period, returned to pre-shock level in HSF1(+)-expressing but not control cells. […] Fluorescence-activated cell sorting and analyses of DNA content were performed on a FACStar Plus machine (Becton-Dickinson, San Jose, Calif.) configured as described elsewhere (Parks, D. R. et al., In: The Handbook of Experimental Immunology, 4th Edition. Vol. 29. pp. 1–29, 1986). Excitation wave length was 488 nm, and detection lengths were 650 nm (long pass) for propidium iodide and 520 nm (narrow band) for fluorescence by GFP. Extracts from sorted cells were analyzed by western blot. mutHSF was detected in cells sorted as positive for GFP, but not in cells sorted as negative compare. […]

HeLa-CAT cells [2] = assay: Cell proliferation and cell cycle distribution (FACS, propidium iodide); type: cell-based, human
Procedure: This cell cycle arrest was followed by flow cytometry of propidium iodide-stained cells. To determine whether mutHSF-induced expression (enhanced expression) of hsp protects the cells from hyperthermia-induced cell cycle arrest, cells were either co-transfected with a CMV promoter-linked mutHSF gene construct and a GFP construct, or singly transfected with the GFP construct. After heat treatment and postincubation as described herein, cells were sorted based on GFP fluorescence. […]
For fluorescence-activated cell sorting, cells from cultures transfected or co-transfected with EGFP-expressing construct were removed from tissue culture dishes by treatment with 0.04% EDTA in phosphate-buffered saline (PBS) and were resuspended in PBS. […] Excitation wavelength was 488 nm, and detection wave lengths were 650 nm (long pass) for propidium iodide and 520 nm (narrow band) for detection of EGFP fluorescence. […]
Protein synthesis dropped to about 10% of the normal rate during heat shock but, after a 1 hour recovery period, returned to pre-shock level in HSF1(+)-expressing but not control cells. […] Fluorescence-activated cell sorting and analyses of DNA content were performed on a FACStar Plus machine (Becton-Dickinson, San Jose, Calif.) configured as described elsewhere (Parks, D. R. et al., In: The Handbook of Experimental Immunology, 4th Edition. Vol. 29. pp. 1–29, 1986). […]

human HSF1d202–316 [HSF1(+)]
reduction of DNA replication (3H-thymidine incorporation) compared to control cells (HeLa-CAT cells [1]): 4–5 fold | heat-induced G2/M cell cycle arrest (HeLa-CAT cells [2]; 43° C. heat shock, GFP-positive cells, listed as mutHSF): much lower proportion of cells in G2/M phase; also recorded: only a small fraction | cell proliferation (HeLa-CAT cells [2]; FACS-isolated, days two to four): severely inhibited cell proliferation
